Measurements as given in ChEMBL document CHEMBL1146435, “Anserinones A and B: new antifungal and antibacterial benzoquinones from the coprophilous fungus Podospora anserina” (1997).
The source made the active and inactive calls. The rule behind the calls is not given here.

How the values were obtained:
Bacillus subtilis = test: Antimicrobial activity against Bacillus subtilis ATCC 6051 at 200 ug/disk; format: functional; conditions: read-out: IZ
Sordaria fimicola = test: Antimicrobial activity against Sordaria fimicola assessed as reduction in radial growth rate at 200 ug/disk by inoculation disk assay; format: functional; set-up: scale not given: the % may be the effect or the level left
[1] = Cytotoxicity against human NCI60 cells; format: functional
Candida albicans = test: Antimicrobial activity against Candida albicans ATCC 90029 at 200 ug/disk; format: functional, organism-based
Staphylococcus aureus = test: Antimicrobial activity against Staphylococcus aureus ATCC 29213 at 200 ug/disk; format: functional; conditions: read-out: IZ
Ascobolus = test: Antimicrobial activity against Ascobolus furfuraceus assessed as reduction in radial growth rate at 200 ug/disk by inoculation disk assay; format: functional; set-up: scale not given: the % may be the effect or the level left

Row | SMILES | zone of inhibition at 200 µg/disc (Bacillus subtilis) | Activity (Sordaria fimicola) | GI50 [1] | Activity (Candida albicans) | zone of inhibition at 200 µg/disc (Staphylococcus aureus) | Activity (Ascobolus)
1 | COC1=CC(=O)C(C)=C(CC(C)=O)C1=O [ANSERINONE A] | 40 mm | 60% | 9.1 µM | inactive | 40 mm | 100%
2 | COC1=CC(=O)C(C)=C(C[C@H](C)O)C1=O [ANSERINONE B] | 40 mm | 50% | 21 µM | inactive | 40 mm | 37%
